The subject of data set [1] is SMN2 minigene (full length SMN2 minigene mRNA containing SMN2 exon 7). In words: SMN2 minigene mRNA splicing RT-qPCR assay in cultured cells. As to conditions: Homo sapiens, HEK293-H; HEK293H cells stably transfected with SMN2-A minigene; 24 hours; 7-point concentration curve; 1.5-fold relative to vehicle-treated cells; read-out: EC1.5x for production of full length SMN2 mRNA. It is filed as cell-based, human. The method in brief:
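HEK293H cells stably carrying the SMN2-A minigene treated 24 h at 37° C with compound (DMSO, 200× stock), then lysed. Multiplex RT-qPCR (SMN primers 0.4 μM final; 40 cycles) measures full-length exon 7-containing minigene mRNA, normalized to GAPDH and to vehicle; EC1.5x derived and binned by stars.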
(Quantitative PCR measures a nucleic acid by following its amplification.)

The subject of data set [2] is Smn protein. Briefly: Smn protein assay in cultured cells (SMN HTRF). The data set is classed as cell-based, human. As to conditions: 48 hours; for maximum fold (Fold) increase of Smn protein: SMA patient fibroblast cells, 7-point concentration data, fold increase relative to vehicle control (SMN HTRF); for EC1.5x (concentration giving 1.5-fold Smn protein increase): SMA Type 1 patient fibroblast cells (GM03813), 7-point concentration curve, SMN HTRF, concentration producing 1.5 times Smn protein vs DMSO vehicle control, read-out: EC1.5x for Smn protein expression. The method in brief:
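Lysates in RIPA with protease inhibitors are incubated overnight at room temperature with HTRF anti-SMN antibodies. EC1.5x is derived from fold increase in ΔF over vehicle.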
A general note: In TR-FRET formats the signal depends on donor and acceptor labels being close together.

Bounds are passed on as bounds.

As usually defined, the melting point is the temperature, or range, at which the solid turns liquid. For the compound `C[C@@H]1CN(c2ccc3cc(-c4cn5cc(F)cnc5n4)c(=O)oc3c2)C[C@H](C)N1` [Compound 491, 7-[(3R,5S)-3,5-dimethylpiperazin-1-yl]-3-(6-fluoroimidazo[1,2-a]pyrimidin-2-yl)-2H-chromen-2-one], the melting point lay within 275 to 281 °C. Moreover, the EC (1.5-fold) in data set [1] was 1 to 3 µM. For the same compound, the “maximum fold (Fold) increase of Smn protein” value (from here on “maximum fold (Fold) increase”) in data set [2] is “** (fold increase between >1.2 and ≤1.35)”.
Compound `Cc1cn2cc(-c3cc4ccc(N5C[C@@H](C)N[C@@H](C)C5)cc4oc3=O)cc2c(C)n1` [Compound 645, 7-[(3R,5S)-3,5-dimethylpiperazin-1-yl]-3-(1,3-dimethylpyrrolo[1,2-a]pyrazin-7-yl)-2H-chromen-2-one] came in with a melting point of 170 to 173 °C. In addition, in data set [1], the EC (1.5-fold) was under 0.1 µM. In addition, in data set [2], the EC1.5x (concentration giving 1.5-fold Smn protein increase) is under 300 nM and the “maximum fold (Fold) increase” value is “***** (fold increase >1.65)”.
Regarding `Cc1ccc2nc(-c3cc4cc(F)c(N5CCNCC5)cc4oc3=O)cn2c1` [Compound 158, 6-fluoro-3-(6-methylimidazo[1,2-a]pyridin-2-yl)-7-(piperazin-1-yl)-2H-chromen-2-one], the melting point lay within 245 to 250 °C. Besides, the EC (1.5-fold) in data set [1] lay in the range of 1 to 3 µM. In addition, the “maximum fold (Fold) increase” value in data set [2] is “** (fold increase between >1.2 and ≤1.35)”.
For the compound `Cc1cn2cc(-c3cc4ccc(N(C)[C@@H]5CCN(C)C5)cc4oc3=O)nc2c(C)n1` [Compound 707, 3-(6,8-dimethylimidazo[1,2-a]pyrazin-2-yl)-7-{methyl[(3R)-1-methylpyrrolidin-3-yl]amino}-2H-chromen-2-one], the melting point lay in the range of 179 to 186 °C. For the same compound, the EC (1.5-fold) in data set [1] is under 0.1 µM. For the same compound, in data set [2], the EC1.5x (concentration giving 1.5-fold Smn protein increase) was 300 to 1000 nM; the “maximum fold (Fold) increase” value is “**** (fold increase between >1.5 and ≤1.65)”.
Compound `Cc1cn2cc(-c3cc4ccc(N5CCCN(C)CC5)cc4oc3=O)cc2cn1` [Compound 589, 7-(4-methyl-1,4-diazepan-1-yl)-3-(3-methylpyrrolo[1,2-a]pyrazin-7-yl)-2H-chromen-2-one] returned a melting point of 148 to 150 °C. For the same compound, the EC (1.5-fold) in data set [1] was under 0.1 µM. In data set [2], the EC1.5x (concentration giving 1.5-fold Smn protein increase) was under 300 nM and the “maximum fold (Fold) increase” value is “***** (fold increase >1.65)”.
On to `O=c1oc2cc(N3CCNCC3)ccc2cc1-c1cn2cccc(Cl)c2n1` [Compound 83, 3-(8-chloroimidazo[1,2-a]pyridin-2-yl)-7-(piperazin-1-yl)-2H-chromen-2-one], for which the melting point is 196 to 198 °C. In data set [1], the EC (1.5-fold) lay in the range of 0.3 to 1 µM. Besides, in data set [2], the EC1.5x (concentration giving 1.5-fold Smn protein increase) fell in the range of 1000 to 3000 nM; the “maximum fold (Fold) increase” value was “**** (fold increase between >1.5 and ≤1.65)”.
The compound `O=c1oc2cc(N3CCCNCC3)cc(F)c2cc1-c1nc2c(F)cccc2o1` [Compound 368, 7-(1,4-diazepan-1-yl)-5-fluoro-3-(4-fluoro-1,3-benzoxazol-2-yl)-2H-chromen-2-one] yielded a melting point of 240 to 245 °C. Also, the EC (1.5-fold) in data set [1] lay within 0.3 to 1 µM. For the same compound, the “maximum fold (Fold) increase” value in data set [2] is “** (fold increase between >1.2 and ≤1.35)”.
Turning to `Cc1cn2cc(-c3cc4ccc(CN5CCNCC5)cc4oc3=O)nc2c(C)n1` [Compound 848, 3-(6,8-dimethylimidazo[1,2-a]pyrazin-2-yl)-7-(piperazin-1-ylmethyl)-2H-chromen-2-one], the melting point was 189 to 195 °C. Also, the EC (1.5-fold) in data set [1] was under 0.1 µM. For the same compound, in data set [2], the EC1.5x (concentration giving 1.5-fold Smn protein increase) fell in the range of 300 to 1000 nM and the “maximum fold (Fold) increase” value is “***** (fold increase >1.65)”.
For `Cc1cn2cc(-c3cc4ccc(N5CCN[C@H](C)C5)cc4oc3=O)nc2s1` [Compound 231, 3-(2-methylimidazo[2,1-b][1,3]thiazol-6-yl)-7-[(3R)-3-methylpiperazin-1-yl]-2H-chromen-2-one], the melting point lay in the range of 178 to 181 °C. In data set [1], the EC (1.5-fold) fell in the range of 0.3 to 1 µM. Also, in data set [2], the EC1.5x (concentration giving 1.5-fold Smn protein increase) lay in the range of 3000 to 10000 nM; the “maximum fold (Fold) increase” value was “** (fold increase between >1.2 and ≤1.35)”.
Compound `C[C@@H]1CN(c2ccc3cc(-c4cn5cccnc5n4)c(=O)oc3c2)C[C@H](C)N1` [Compound 107, 7-[(3R,5S)-3,5-dimethylpiperazin-1-yl]-3-(imidazo[1,2-a]pyrimidin-2-yl)-2H-chromen-2-one] returned a melting point of 256 to 258 °C. The EC (1.5-fold) in data set [1] was in the range of 0.1 to 0.3 µM. For the same compound, in data set [2], the EC1.5x (concentration giving 1.5-fold Smn protein increase) was in the range of 300 to 1000 nM; the “maximum fold (Fold) increase” value is “**** (fold increase between >1.5 and ≤1.65)”.
Regarding `CCN1CCN(c2ccc3cc(-c4cn5cc(C)ncc5n4)c(=O)oc3c2)C[C@@H]1C` [Compound 627, 7-[(3S)-4-ethyl-3-methylpiperazin-1-yl]-3-(6-methylimidazo[1,2-a]pyrazin-2-yl)-2H-chromen-2-one], the melting point lay in the range of 205 to 208 °C. Besides, in data set [1], the EC (1.5-fold) was under 0.1 µM. Moreover, in data set [2], the EC1.5x (concentration giving 1.5-fold Smn protein increase) is under 300 nM and the “maximum fold (Fold) increase” value is reported as “***** (fold increase >1.65)”.
Regarding `Cc1cc(F)c2nc(-c3cc4ccc(N5CCNC6(CCC6)C5)cc4oc3=O)cn2c1` [Compound 598, 7-(5,8-diazaspiro[3.5]non-8-yl)-3-(8-fluoro-6-methylimidazo[1,2-a]pyridin-2-yl)-2H-chromen-2-one], the melting point was in the range of 244 to 254 °C. Moreover, the EC (1.5-fold) in data set [1] lay in the range of 0.1 to 0.3 µM. In addition, the “maximum fold (Fold) increase” value in data set [2] is “*** (fold increase between >1.35 and ≤1.5)”.
In the case of `Cc1cn2cc(-c3cc4ccc(CN5CCCCC5)cc4oc3=O)nc2c(C)n1` [Compound 847, 3-(6,8-dimethylimidazo[1,2-a]pyrazin-2-yl)-7-(piperidin-1-ylmethyl)-2H-chromen-2-one], the melting point was in the range of 191 to 193 °C. In addition, the EC (1.5-fold) in data set [1] was in the range of 1 to 3 µM. The “maximum fold (Fold) increase” value in data set [2] is “** (fold increase between >1.2 and ≤1.35)”.
The compound `Cc1cn2cc(-c3cc4ccc(N5C[C@@H]6C[C@H]5CN6)cc4oc3=O)nc2cn1` [Compound 623, 7-[(1S,4S)-2,5-diazabicyclo[2.2.1]hept-2-yl]-3-(6-methylimidazo[1,2-a]pyrazin-2-yl)-2H-chromen-2-one] displayed a melting point of 225 to 227 °C. The EC (1.5-fold) in data set [1] is under 0.1 µM. In data set [2], the EC1.5x (concentration giving 1.5-fold Smn protein increase) is 300 to 1000 nM; the “maximum fold (Fold) increase” value was “*** (fold increase between >1.35 and ≤1.5)”.
`Cl.O=c1oc2cc(N3CCNCC3)ccc2cc1-c1nc2c(Cl)cccc2o1` [Compound 70, 3-(4-chloro-1,3-benzoxazol-2-yl)-7-(piperazin-1-yl)-2H-chromen-2-one hydrochloride] yielded a melting point of 278 to 282 °C. The EC (1.5-fold) in data set [1] was in the range of 0.3 to 1 µM. Also, in data set [2], the “maximum fold (Fold) increase” value is listed as “* (maximum fold increase of ≤1.2)”.
As to `CN1CCCN(c2ccc3cc(-c4cn5cc(F)ccc5n4)c(=O)oc3c2)CC1` [Compound 294, 3-(6-fluoroimidazo[1,2-a]pyridin-2-yl)-7-(4-methyl-1,4-diazepan-1-yl)-2H-chromen-2-one], the melting point was in the range of 152 to 155 °C. Also, the EC (1.5-fold) in data set [1] lay within 0.1 to 0.3 µM. Also, in data set [2], the EC1.5x (concentration giving 1.5-fold Smn protein increase) fell in the range of 1000 to 3000 nM; the “maximum fold (Fold) increase” value was “** (fold increase between >1.2 and ≤1.35)”.
`C[C@@H]1CN(c2cc(F)c3cc(-c4cn5cccc(Cl)c5n4)c(=O)oc3c2)CCN1` [Compound 390, 3-(8-chloroimidazo[1,2-a]pyridin-2-yl)-5-fluoro-7-[(3R)-3-methylpiperazin-1-yl]-2H-chromen-2-one] registered a melting point of 266 to 276 °C. The EC (1.5-fold) in data set [1] lay in the range of 0.1 to 0.3 µM. In data set [2], the “maximum fold (Fold) increase” value was “*** (fold increase between >1.35 and ≤1.5)”.
In turn, `C[C@@H]1CN(c2ccc3cc(-c4cnc5ccccc5n4)c(=O)oc3c2)C[C@H](C)N1` [Compound 461, 7-[(3R,5S)-3,5-dimethylpiperazin-1-yl]-3-(quinoxalin-2-yl)-2H-chromen-2-one] gave a melting point of 234 to 236 °C. Further, the EC (1.5-fold) in data set [1] fell in the range of 3 to 30 µM. In data set [2], the “maximum fold (Fold) increase” value is “* (maximum fold increase of ≤1.2)”.
As for `Cc1cc2cc(-c3cc4ccc(N5CCN(C(C)C)CC5)cc4oc3=O)oc2c(C)n1` [Compound 789, 3-(5,7-dimethylfuro[2,3-c]pyridin-2-yl)-7-[4-(propan-2-yl)piperazin-1-yl]-2H-chromen-2-one], the melting point lay in the range of 186 to 189 °C. In data set [1], the EC (1.5-fold) was under 0.1 µM. Besides, the “maximum fold (Fold) increase” value in data set [2] is “*** (fold increase between >1.35 and ≤1.5)”.
For `Cc1nccn2cc(-c3cc4ccc(N5CCNCC5)cc4oc3=O)nc12` [Compound 571, 3-(8-methylimidazo[1,2-a]pyrazin-2-yl)-7-(piperazin-1-yl)-2H-chromen-2-one], the melting point lay within 213 to 215 °C. For the same compound, the EC (1.5-fold) in data set [1] fell in the range of 0.3 to 1 µM. In addition, the “maximum fold (Fold) increase” value in data set [2] was “** (fold increase between >1.2 and ≤1.35)”.
`COc1ccc(-c2cc3ccc(N4C[C@@H](C)N[C@@H](C)C4)cc3oc2=O)cc1OC` [Compound 384, 3-(3,4-dimethoxyphenyl)-7-[(3R,5S)-3,5-dimethylpiperazin-1-yl]-2H-chromen-2-one] gave a melting point of 130 to 132 °C. For the same compound, the EC (1.5-fold) in data set [1] lay within 3 to 30 µM. Besides, in data set [2], the “maximum fold (Fold) increase” value is “* (maximum fold increase of ≤1.2)”.

Source of the values: USRE47689E1, “Compounds for treating spinal muscular atrophy” (PTC Therapeutics, Inc., priority 2011, dated 2019).
